The values below come from US8916517B2, “Analogs of pituitary adenylate cyclase-activating polypeptide (PACAP) and methods for their use” (The Administrators of the Tulane Educational Fund, priority 2009, dated 2014).

Assay [1] deals with ischemia/reperfusion injury to the kidney. Put plainly: Serum creatinine after renal ischemia/reperfusion injury in mice. The class given is in vivo, male C57BL/6 mice. Conditions: 20 micrograms i.p. 1, 24 and 48 h after start of reperfusion; 45 min renal artery clamping; 72 hours. The protocol:
FIG. 6 is a graph showing the effects of PACAP38 and two novel PACAP analogs on serum creatinine levels in mice following ischemia/reperfusion injury to the kidney. The renal artery in male C57BL/6 mice was clamped bilaterally for 45 minutes in all mice except for the sham-operated mice. Twenty micrograms of PACAP38 or one of the PACAP analogs were given intraperitoneally 1 hour after the start of reperfusion and additional doses were given at 24 and 48 hours after the initial dose. The sham-operated group of mice was injected intraperitoneally with PACAP38 on the same schedule as the mice subjected to ischemia/reperfusion. The control group of mice was injected intraperitoneally with the same volume of saline as for the injections of PACAP38 on the same schedule. All of the mice were euthanized 24 hours after the final injection of saline, PACAP38 or one of the novel PACAP analogs. Each value represents the mean plus/minus the standard error of four determinations. **p<0.01 and *p<0.05 compared to the ischemia/reperfusion group treated with saline. I/R, ischemia/reperfusion; sham, sham-operated.

Assay [2] concerns rat renal proximal tubule epithelial cells. Put plainly: Reduction of cisplatin-induced apoptotic cell death of renal proximal tubule epithelial cells (histone-associated DNA fragmentation). The class given is cell-based. The note with it: cisplatin 24 hours, comparable concentrations.
Assay [3] has as its system light-chain immunoglobulin-secreting human multiple myeloma cells. Put plainly: Inhibition of proliferation of light-chain immunoglobulin-secreting human multiple myeloma cells (bromodeoxyuridine incorporation). The note with it: inhibition of myeloma cell proliferation. The class given is cell-based. The method, then:
FIG. 3 is a table listing the EC50 for the inhibitory effects of PACAP38, PACAP27, VIP, and eight novel PACAP analogs on the proliferation of light-chain immunoglobulin-secreting myeloma cells. The light-chain immunoglobulin-secreting human multiple myeloma cells were cultured in RPMI 1640 medium supplemented with 10% non-inactivated fetal bovine serum and 0.05 mM 2-mercaptoethanol. The effects of PACAP38, PACAP27, VIP, and the eight novel PACAP analogs on myeloma cell proliferation were assessed by determining incorporation of bromodeoxyuridine into DNA during cell division. The number of myeloma cells approximately doubled during the 24-hour incubation period in the absence of treatment with PACAP-like peptides. Five different concentrations, ranging from 10^-13 M to 10^-5 M, were tested for PACAP38, PACAP27, VIP, and each of the eight novel PACAP analogs. The EC50 was calculated from the concentration response curve using the software package Prism (Graph Pad, San Diego, CA). Each value represents the mean of four-six determinations per experiment. The EC50 for PACAP38 is based on the average of four separate experiments, while the EC50 for PACAP27 and [Pip^3,Aib ^16,28,Ala^17,Lys^34,D-LysIPACAP 38 (SEQ ID NO: 4) is based on the average of two separate experiments.
FIG. 4 is a graph showing a representative concentration response curve from a single experiment on the inhibitory effects PACAP38 and six PACAP38 analogs on the proliferation of light-chain immunoglobulin-secreting human myeloma cells. Each value represents the mean plus/minus the standard error of four-six determinations. Note that replacing pipecolic acid in position 3 of the novel analogs with either nipecotic acid or isonipecotic acid results in an analog with more than four orders of magnitude lower inhibitory potency.
The effects of PACAP38, PACAP27, VIP, and PACAP analogs on myeloma cell proliferation were assessed by determining incorporation bromodeoxyuridine into DNA during cell division. […]

In assay [4] the test system is human myeloma cell line (MM.1 R). Put plainly: Proliferation of dexamethasone-resistant myeloma cell line MM.1R (bromodeoxyuridine incorporation). The class given is cell-based. Conditions: FIG. 9. The method, then:
FIG. 9 is a graph showing the effects PACAP38, [Pip^3,Ala^14,17,Aib^16,28,Lys^34,D-Lys^38] PACAP38(SEQ ID NO: 6) and dexamethasone on the proliferation of light-chain immunoglobulin-secreting human myeloma cell line (MM.1 R) that was derived from a patient who was being treated for multiple myeloma with a dexamethasome-containing regimen. The light-chain immunoglobulin-secreting multiple myeloma cells were cultured in RPMI 1640 medium supplemented with 10% non-inactivated fetal bovine serum and 0.05mM 2-mercaptoethanol. The effects of dexamethasone, PACAP38 and the novel PACAP38 analog on cell proliferation were assessed by determining the incorporation of bromodeoxyuridine into DNA during cell division. Each value represents the mean plus/minus the standard error of four-six determination. The cell lines in FIGS. 8 and 9 were obtained from the same patient at different stages of the treatment (Greenstein et al., Exp Hematol 31 :271-282, 2003).

The subject of assay [5] is human renal proximal tubule epithelial cells. Briefly: Reduction of gentamicin-induced apoptotic cell death of human renal proximal tubule epithelial cells. The class given is cell-based. The note with it: gentamicin 24 hours. The method, then:
The inhibitory effects of PACAP38 and the novel PACAP analog on apoptotic cell death was assessed by the quantitative determination of cytoplasmic histone-associated DNA-fragmentation (mono- and oligonucleosomes) after exposure to gentamicin for 24 hours. […] Each value represents the mean plus/minus the standard deviation of four determinations. **p<0.01 and *p<0.05 compared to the group treated only with gentamicin.

Entries after “also recorded” stand apart in the source; their conditions may differ. Non-standard residues stand in square brackets, D forms with d. No end group written: not given here. Pip = O=C(O)[C@@H]1CCCCN1; Aib = CC(C)(N)C(=O)O

With “[Pip^3,Ala^15,17,Aib^16,28,Lys^34,D-Lys^38]PACAP38 (HS[Pip]GIFTDSYSRYRA[Aib]AAVKKYLAAVL[Aib]KRYKQKVKN[dK]-NH2; N-terminus assumed; SMILES CC[C@H](C)[C@H](NC(=O)CNC(=O)[C@@H]1CCCCN1C(=O)[C@H](CO)NC(=O)[C@@H](N)Cc1c[nH]cn1)C(=O)N[C@@H](Cc1ccccc1)C(=O)N[C@H](C(=O)N[C@@H](CC(=O)O)C(=O)N[C@@H](CO)C(=O)N[C@@H](Cc1ccc(O)cc1)C(=O)N[C@@H](CO)C(=O)N[C@@H](CCCNC(=N)N)C(=O)N[C@@H](Cc1ccc(O)cc1)C(=O)N[C@@H](CCCNC(=N)N)C(=O)N[C@@H](C)C(=O)NC(C)(C)C(=O)N[C@@H](C)C(=O)N[C@@H](C)C(=O)N[C@H](C(=O)N[C@@H](CCCCN)C(=O)N[C@@H](CCCCN)C(=O)N[C@@H](Cc1ccc(O)cc1)C(=O)N[C@@H](CC(C)C)C(=O)N[C@@H](C)C(=O)N[C@@H](C)C(=O)N[C@H](C(=O)N[C@@H](CC(C)C)C(=O)NC(C)(C)C(=O)N[C@@H](CCCCN)C(=O)N[C@@H](CCCNC(=N)N)C(=O)N[C@@H](Cc1ccc(O)cc1)C(=O)N[C@@H](CCCCN)C(=O)N[C@@H](CCC(N)=O)C(=O)N[C@@H](CCCCN)C(=O)N[C@H](C(=O)N[C@@H](CCCCN)C(=O)N[C@@H](CC(N)=O)C(=O)N[C@H](CCCCN)C(N)=O)C(C)C)C(C)C)C(C)C)[C@@H](C)O) [SEQ ID NO:5]”, the “reversal of the rise in serum creatinine caused by ischemia/reperfusion” value in assay [1] is listed as “almost completely reversed”. The “cytoprotective potency compared with PACAP38” value in assay [2] is “either as effective or more effective than PACAP38”.

As to PACAP27, in assay [3], the “potency compared with PACAP38 or the novel PACAP38 analogs” value is “significantly less potent”.

Take “[Pip^3,Ala^14,17,Aib^16,28,Lys^34,D-Lys^38]PACAP38 (HS[Pip]GIFTDSYSRYAK[Aib]AAVKKYLAAVL[Aib]KRYKQKVKN[dK]-NH2; N-terminus assumed; SMILES CC[C@H](C)[C@H](NC(=O)CNC(=O)[C@@H]1CCCCN1C(=O)[C@H](CO)NC(=O)[C@@H](N)Cc1c[nH]cn1)C(=O)N[C@@H](Cc1ccccc1)C(=O)N[C@H](C(=O)N[C@@H](CC(=O)O)C(=O)N[C@@H](CO)C(=O)N[C@@H](Cc1ccc(O)cc1)C(=O)N[C@@H](CO)C(=O)N[C@@H](CCCNC(=N)N)C(=O)N[C@@H](Cc1ccc(O)cc1)C(=O)N[C@@H](C)C(=O)N[C@@H](CCCCN)C(=O)NC(C)(C)C(=O)N[C@@H](C)C(=O)N[C@@H](C)C(=O)N[C@H](C(=O)N[C@@H](CCCCN)C(=O)N[C@@H](CCCCN)C(=O)N[C@@H](Cc1ccc(O)cc1)C(=O)N[C@@H](CC(C)C)C(=O)N[C@@H](C)C(=O)N[C@@H](C)C(=O)N[C@H](C(=O)N[C@@H](CC(C)C)C(=O)NC(C)(C)C(=O)N[C@@H](CCCCN)C(=O)N[C@@H](CCCNC(=N)N)C(=O)N[C@@H](Cc1ccc(O)cc1)C(=O)N[C@@H](CCCCN)C(=O)N[C@@H](CCC(N)=O)C(=O)N[C@@H](CCCCN)C(=O)N[C@H](C(=O)N[C@@H](CCCCN)C(=O)N[C@@H](CC(N)=O)C(=O)N[C@H](CCCCN)C(N)=O)C(C)C)C(C)C)C(C)C)[C@@H](C)O) [SEQ ID NO:6]”: the “reversal of the rise in serum creatinine caused by ischemia/reperfusion” value in assay [1] is reported as “almost completely reversed”. Moreover, the “cytoprotective potency compared with PACAP38” value in assay [2] was “either as effective or more effective than PACAP38”. Besides, in assay [4], the “sensitivity of cell proliferation” value is reported as “still sensitive”.

With “[Pip^3]PACAP38 (HS[Pip]GIFTDSYSRYRKQMAVKKYLAAVLGKRYKQRVKNK-NH2; N-terminus assumed; SMILES CC[C@H](C)[C@H](NC(=O)CNC(=O)[C@@H]1CCCCN1C(=O)[C@H](CO)NC(=O)[C@@H](N)Cc1c[nH]cn1)C(=O)N[C@@H](Cc1ccccc1)C(=O)N[C@H](C(=O)N[C@@H](CC(=O)O)C(=O)N[C@@H](CO)C(=O)N[C@@H](Cc1ccc(O)cc1)C(=O)N[C@@H](CO)C(=O)N[C@@H](CCCNC(=N)N)C(=O)N[C@@H](Cc1ccc(O)cc1)C(=O)N[C@@H](CCCNC(=N)N)C(=O)N[C@@H](CCCCN)C(=O)N[C@@H](CCC(N)=O)C(=O)N[C@@H](CCSC)C(=O)N[C@@H](C)C(=O)N[C@H](C(=O)N[C@@H](CCCCN)C(=O)N[C@@H](CCCCN)C(=O)N[C@@H](Cc1ccc(O)cc1)C(=O)N[C@@H](CC(C)C)C(=O)N[C@@H](C)C(=O)N[C@@H](C)C(=O)N[C@H](C(=O)N[C@@H](CC(C)C)C(=O)NCC(=O)N[C@@H](CCCCN)C(=O)N[C@@H](CCCNC(=N)N)C(=O)N[C@@H](Cc1ccc(O)cc1)C(=O)N[C@@H](CCCCN)C(=O)N[C@@H](CCC(N)=O)C(=O)N[C@@H](CCCNC(=N)N)C(=O)N[C@H](C(=O)N[C@@H](CCCCN)C(=O)N[C@@H](CC(N)=O)C(=O)N[C@@H](CCCCN)C(N)=O)C(C)C)C(C)C)C(C)C)[C@@H](C)O) [SEQ ID NO:12]”, the “cytoprotective potency, PACAP38 versus [Pip^3]PACAP38” value in assay [5] is given as “less potent than PACAP38”. The “reduction in gentamicin-induced apoptotic cell death” value in assay [5] (various concentrations) is given as “significant dose-dependent reduction; also recorded: dose-dependent inhibition”.

For “[Pip^3,Aib^16,28,Ala^17,Lys^34,D-Lys^38]PACAP38 (HS[Pip]GIFTDSYSRYRK[Aib]AAVKKYLAAVL[Aib]KRYKQKVKN[dK]-NH2; N-terminus assumed; SMILES CC[C@H](C)[C@H](NC(=O)CNC(=O)[C@@H]1CCCCN1C(=O)[C@H](CO)NC(=O)[C@@H](N)Cc1c[nH]cn1)C(=O)N[C@@H](Cc1ccccc1)C(=O)N[C@H](C(=O)N[C@@H](CC(=O)O)C(=O)N[C@@H](CO)C(=O)N[C@@H](Cc1ccc(O)cc1)C(=O)N[C@@H](CO)C(=O)N[C@@H](CCCNC(=N)N)C(=O)N[C@@H](Cc1ccc(O)cc1)C(=O)N[C@@H](CCCNC(=N)N)C(=O)N[C@@H](CCCCN)C(=O)NC(C)(C)C(=O)N[C@@H](C)C(=O)N[C@@H](C)C(=O)N[C@H](C(=O)N[C@@H](CCCCN)C(=O)N[C@@H](CCCCN)C(=O)N[C@@H](Cc1ccc(O)cc1)C(=O)N[C@@H](CC(C)C)C(=O)N[C@@H](C)C(=O)N[C@@H](C)C(=O)N[C@H](C(=O)N[C@@H](CC(C)C)C(=O)NC(C)(C)C(=O)N[C@@H](CCCCN)C(=O)N[C@@H](CCCNC(=N)N)C(=O)N[C@@H](Cc1ccc(O)cc1)C(=O)N[C@@H](CCCCN)C(=O)N[C@@H](CCC(N)=O)C(=O)N[C@@H](CCCCN)C(=O)N[C@H](C(=O)N[C@@H](CCCCN)C(=O)N[C@@H](CC(N)=O)C(=O)N[C@H](CCCCN)C(N)=O)C(C)C)C(C)C)C(C)C)[C@@H](C)O) [SEQ ID NO:4]”, the “cytoprotective potency compared with PACAP38” value in assay [2] is listed as “either as effective or more effective than PACAP38”.
